From EP2455080A1, “S1P1 receptor agonists for use in the treatment of multiple sclerosis” (Almirall, S.A., priority 2010, dated 2012)
pEC50: −log10 of the molar value.

Experiments:
lymphocytes in blood = assay: Recovery of lymphopenia in rats after a single oral administration; type: in vivo; details: Wistar rats, single oral dose that caused maximal lymphopenia
Experimental: Test compounds were administered by oral route to Wistar rats at a dose of each compound that caused maximal lymphopenia. At several times after administration, animals were anestesized and blood extracted from retroorbital plexus and collected into heparinized tubes. Total lymphocyte numbers were determined using a Sysmex K-800 haemocytometer. [formula]

in vivo = details: Wistar, rat, iv, 1 mg/kg
Experimental: Rats were administered with 1 mg/kg of test compounds by intraveneous route to Wistar rats. Blood samples were collected from retroorbital plexus at several time points after administration and plasma levels of compounds were quantified by MS-HPLC.

[1] = Acute hepatotoxicity assay: plasma liver markers (ALT, AST, TBIL) in mice; type: in vivo, Swiss mice; details: for ALT / AST / TBil: plasma, 24 h after single intraperitoneal administration; for hepatotoxicity: single intraperitoneal administration, liver markers 24 h later, compared to vehicle-treated group
Experimental: Acute hepatotoxicity assays were performed in Swiss mice. Animals received a single administration of either vehicle, or Fingolimod or a compound of the present invention (compounds from the list indicated previously) by intraperitoneal route. Twenty-four hours later, animals were sacrificed and the levels of liver markers ALT (alanine aminotransferase), AST (aspartate aminotransferase), and TBIL (total bilirubin) in plasma were determined. An increase in liver markers in this model indicates the potential of that compound to cause liver toxicity in humans at lower doses following longer exposures. Table 2: Plasma levels of liver markers of mice 24 h after treatment with either vehicle or test compounds No.142, No.171 or fingolimod.

S1P1 receptor = S1P1 receptor (Homo sapiens, UniProt P21453); assay: 35S-GTPyS binding assay; type: biochemical; details: membranes, 90 min at room temperature
Experimental: The effect of the compounds was measured using a 35S-GTPyS binding assay. Briefly, membranes were incubated in a buffer containing 20 mM HEPES pH 7.4, 100 mM NaCl, 10 mM MgCl2, 10µM GDP, 50µg/ml saponin and 0.2% fatty acid-free BSA at various concentrations (0.1nM-10µM) and 0.1nM 35S-GTPyS. 10µM […] was used as 100% maximum efficacy. The assay was incubated for 90 min at room temperature with gentle mixing, and terminated by filtrating the reaction mixture through GF/C filter plates using the Manifold Filtration System. The filters were immediately washed with sodium phosphate pH 7.4 buffers. After drying the filter plates scintillant liquid were added to each well and 35S-GTPyS binding was measured on a Trilux Scintillation Counter.

Sequence of S1P1 receptor (P21453 whole entry): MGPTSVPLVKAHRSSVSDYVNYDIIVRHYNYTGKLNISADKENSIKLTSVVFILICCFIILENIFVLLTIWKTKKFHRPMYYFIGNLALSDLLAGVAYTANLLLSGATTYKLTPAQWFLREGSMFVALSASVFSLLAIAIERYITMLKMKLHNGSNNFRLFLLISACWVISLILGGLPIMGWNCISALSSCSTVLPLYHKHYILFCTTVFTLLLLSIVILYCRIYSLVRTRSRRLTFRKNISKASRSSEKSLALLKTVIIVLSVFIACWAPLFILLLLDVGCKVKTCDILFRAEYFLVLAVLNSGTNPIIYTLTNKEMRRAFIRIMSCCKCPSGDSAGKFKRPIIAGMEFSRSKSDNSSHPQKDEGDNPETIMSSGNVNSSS

AUC(0-t) (in vivo)	Cmax (in vivo)	Tmax (in vivo)	half-life (in vivo)	pEC50 (S1P1 receptor)	Structure (SMILES)	time after administration to recover lymphocytes in blood (lymphocytes in blood)	ALT ([1]; 30 mg/kg)	AST ([1]; 30 mg/kg)	TBil ([1]; 30 mg/kg)	ALT ([1]; 100 mg/kg)	AST ([1]; 100 mg/kg)	TBil ([1]; 100 mg/kg)	hepatotoxicity [1]
279 ng·h/mL	50.5 ng/mL	6 min	26.1 h		CCCCCCCCc1ccc(CCC(N)(CO)CO)cc1 [Fingolimod, reference compound]	144 h	59 ± 62 IU/L	354 ± 70 IU/L	0.12 ± 0.01 mg/dL	355 ± 60 IU/L	589 ± 73 IU/L	0.16 ± 0.02 mg/dL	high hepatotoxicity
6230 ng·h/mL	986 ng/mL	6 min	8.2 h	7.73	Cn1nc(-c2nc(-c3ccc(CCN4CCC(C(=O)O)CC4)c(C(F)(F)F)c3)no2)c2c1CC(C)(C)CC2 [Compound 171, 1-(2-{2-(trifluoromethyl)-4-[5-(1,6,6-trimethyl-4,5,6,7-tetrahydro-1H-indazol-3-yl)-1,2,4-oxadiazol-3-yl]phenyl}ethyl)piperidine-4-carboxylic acid]					42 ± 13 IU/L	66 ± 7 IU/L	0.5 ± 0.04 mg/dL	lack of hepatotoxicity
2630 ng·h/mL	824 ng/mL	6 min	3.5 h	8.06	Cc1cc(-c2noc(-c3nn(C)c4c3CCC(C)(C)C4)n2)cc(C)c1CCN1CCC(C(=O)O)CC1 [Compound 142, 1-(2-{2,6-dimethyl-4-[5-(1,6,6-trimethyl-4,5,6,7-tetrahydro-1H-indazol-3-yl)-1,2,4-oxadiazol-3-yl]phenyl}ethyl)piperidine-4-carboxylic acid]					45 ± 5 IU/L	87 ± 9 IU/L	0.3 ± 0.1 mg/dL	lack of hepatotoxicity
